Consider 2 molecules from US20240059685A1, “PIEZO1 AGONISTS FOR THE PROMOTION OF BONE FORMATION” (BIOVENTURES, LLC, priority 2019, published 2024).

One assay deals with MLO-Y4 cells. Kind of assay: ATP production in MLO-Y4 cells. Conditions: 30 minutes, different doses. It counts as cell-based, murine.
Assay [1] concerns calvaria cells. In words: Mitochondria staining (MitoBright dye) in wildtype and Piezo1 knockout calvaria cells. It counts as cell-based. To be noted: 10 μM, 24 hours; for increases in mitochondria staining in Piezo1 knockout cells: Piezo1 knockout calvaria cells; for mitochondria staining: wildtype calvaria cells. The procedure: Next, we determined whether Yoda1 or YW-3-170 increase mitochondria number in primary calvaria cells. Wildtype and Piezo1 knockout calvarial cells were treated with 10 μM Yoda1 or YW-3-170 for 24 hours and then were stained for Mitochondria using MitoBright dye. […] However, these increases were blunted in Piezo1 knockout cells. […] The fluorescence intensity was quantified using the ImageJ software.

The target of a further assay is T1, Piezo1 (Mus musculus, UniProt E2JF22).
T1 construct: To identify Piezo1 stimulators, we treated MLO-Y4 cells with compounds; endogenous in cells; host or cells: MLO-Y4 (murine osteocyte-like cell line); control sh-Luc cells, with sh-Piezo1 knock-down cells as the specificity control
In words: qPCR gene expression of Wnt1, Ptgs2 and Tnfrsf11b in MLO-Y4 cells. To be noted: 10 μM, 2 hours. It counts as cell-based, murine. The protocol: Cell cultures. MLO-Y4 cells were cultured in α-MEM supplemented with 5% FBS, 5% BCS, and 1% penicillin/streptomycin/glutamine. Fifteen dynes/cm^2 oscillatory fluid shear stress was applied on MLO-Y4 cells at 1 Hz for 2 hours using an IBDI pump system (IBIDI, German). For Yoda1 treatment, cells were cultured in the presence of 10 μM Yoda1 (Sigma, St. Louis, MO) or DMSO for 2 hours. Immediately after the treatments, we isolated RNA from cells using RNeasy mini kit (Qiagen, German) for qPCR or RNA-seq analysis. To silence Piezo1, we generated Piezo1 shRNA expression plasmid using the following oligonucleotides in the pLKO.1-TRC cloning vector (Addgene Plasmid #10878, a gift from David Root): forward oligo: 5′-CCGGTC-[…]-3′ (SEQ ID NO: 1); reverse oligo: 5′-[…]-CGA-3′ (SEQ ID NO: 2) (Zhang et al., 2017). Yap1 shRNA (TRCN0000238432) and Taz shRNA (TRCN0000095951) were purchased from Sigma (St. Louis, MO). A shRNA against firefly luciferase was used as a control (Sigma, St. Louis, MO). For virus production, HEK293T cells were cultured in a 6-well culture plate and co-transfected with a total 3 μg of lentiviral shRNA vector, pMD2G (Addgene plasmid #12259, a gift from Didier Trono), and psPAX2 (Addgene plasmid #12260, a gift from Didier Trono) at the ratio of 2:0.9:0.4 using TransIT-LT1 transfection reagent (Mirus, Madison, WI). Culture media was changed 12 hours after transfection and viral supernatants were collected 48 hours after media change. Viral supernatants were filtered through a 0.45 μm filter and used immediately to transduce cells cultured in a 10 cm dish. Cells were then subjected to selection with G418 (100 μg/ml) or puromycin (25 μg/ml) for 5 days before treatment. To overexpress Piezo1 in MLO-Y4 cells, we transfected mPiezo1-IRES-eGFP (Addgene plasmid #80925, a gift from Ardem Patapoutian) into MLO-Y4 cells using TransIT-LT1 transfection reagent (Mirus, Madison, WI) and then treated these cells with 15 dynes/cm^2 oscillatory fluid shear stress at 1 Hz for 2 hours. Plasmids for expression of Cas9 and sgRNAs for knocking out Piezo1 in UAMS-32 cells were prepared by inserting oligonucleotides encoding the desired sgRNA sequence into the pX458 vector using the protocol recommended by the Zhang laboratory (Cong et al., 2013). Plasmids expressing Cas9 and Piezo1 sgRNAs were transfected into UAMS-32 cells using TransIT-LT1 transfection reagent (Mirus, Madison, WI). Cells were sorted into 96-well plates for single cell cloning 48 hours after transfection. Single cell colonies were then screened for homozygous deletion using the following primers: Forward: 5′-[…]-3′ (SEQ ID NO: 5), Reverse: 5′-[…]-3′ (SEQ ID NO: 6). All homozygous mutant cell colonies were then pooled together for further analysis. Cas9 transfected cells were used as a control. All in vitro cell culture experiments were performed three times with three technical replicates.
Quantitative PCR. Organs and whole bones were harvested from animals, removed of soft tissues, and stored immediately in liquid nitrogen. We prepared osteocyte-enriched bone by removing the ends of femurs and tibias and then flushing the bone marrow with PBS. We then scraped the bone surface with a scalpel and froze them in liquid nitrogen for later RNA isolation, or decalcified them for genomic DNA isolation. We isolated total RNA using TRIzol (Life technologies, NY), according to the manufacturer's instructions and prepared cDNA using High Capacity first strand cDNA synthesis kit (Life Technologies). We performed quantitative RT-PCR using the following Taqman assays from Applied Biosystems: Piezo1 (Mm01241549_m1); Piezo2 (Mm01265861_m1); Ptgs2 (Mm00478374_m1); Cyr61 (Mm00487498_m1); Wnt1 (Mm01300-555_g1); Yap1 (Mm011432-63_m1); Taz (Mm01289583_m1); Tnfsf11 Mm00441906_m1; Tnfrsf11b (Mm00435452_m1); Sost (Mm00470479_m1); and ribosomal protein S2 (Mrps2) (Mm00475529_m1). We calculated relative mRNA amounts using the ΔCt method (Livak and Schmittgen, 2001). […]
Background: In qPCR the cycle at which signal appears reflects the starting amount.

Assay [2] relates to calvaria cells. Kind of assay: Oxygen consumption rate and ATP production (seahorse) in wildtype and Piezo1 knockout calvaria cells. To be noted: 10 μM, 1 hour; for changes in mitochondrial oxygen consumption rate in cells lacking Piezo1 / increases in ATP production in Piezo1 knockout cells: Piezo1 knockout calvaria cells. It counts as cell-based. The procedure: To determine whether activation of Piezo1 by Yoda1 or YW-3-170 is associated with increased mitochondrial function, we measured oxygen consumption rate and ATP production in calvaria cells treated by Yoda1 or YW-3-170. Wildtype and Piezo1 knockout calvarial cells were cultured in α-MEM medium supplemented with 10% fetal bovine serum and treated with 10 μM Yoda1 or YW-3-170 for 1 hour. Oxygen consumption rate and ATP production were measured using seahorse. […] Importantly, these increases were diminished in Piezo1 knockout cells.

Setting [3] is: Yap1/Taz knock-down MLO-Y4 cells.

Entries after “also recorded” stand apart in the source; their conditions may differ.

T1 sequence (E2JF22 whole entry): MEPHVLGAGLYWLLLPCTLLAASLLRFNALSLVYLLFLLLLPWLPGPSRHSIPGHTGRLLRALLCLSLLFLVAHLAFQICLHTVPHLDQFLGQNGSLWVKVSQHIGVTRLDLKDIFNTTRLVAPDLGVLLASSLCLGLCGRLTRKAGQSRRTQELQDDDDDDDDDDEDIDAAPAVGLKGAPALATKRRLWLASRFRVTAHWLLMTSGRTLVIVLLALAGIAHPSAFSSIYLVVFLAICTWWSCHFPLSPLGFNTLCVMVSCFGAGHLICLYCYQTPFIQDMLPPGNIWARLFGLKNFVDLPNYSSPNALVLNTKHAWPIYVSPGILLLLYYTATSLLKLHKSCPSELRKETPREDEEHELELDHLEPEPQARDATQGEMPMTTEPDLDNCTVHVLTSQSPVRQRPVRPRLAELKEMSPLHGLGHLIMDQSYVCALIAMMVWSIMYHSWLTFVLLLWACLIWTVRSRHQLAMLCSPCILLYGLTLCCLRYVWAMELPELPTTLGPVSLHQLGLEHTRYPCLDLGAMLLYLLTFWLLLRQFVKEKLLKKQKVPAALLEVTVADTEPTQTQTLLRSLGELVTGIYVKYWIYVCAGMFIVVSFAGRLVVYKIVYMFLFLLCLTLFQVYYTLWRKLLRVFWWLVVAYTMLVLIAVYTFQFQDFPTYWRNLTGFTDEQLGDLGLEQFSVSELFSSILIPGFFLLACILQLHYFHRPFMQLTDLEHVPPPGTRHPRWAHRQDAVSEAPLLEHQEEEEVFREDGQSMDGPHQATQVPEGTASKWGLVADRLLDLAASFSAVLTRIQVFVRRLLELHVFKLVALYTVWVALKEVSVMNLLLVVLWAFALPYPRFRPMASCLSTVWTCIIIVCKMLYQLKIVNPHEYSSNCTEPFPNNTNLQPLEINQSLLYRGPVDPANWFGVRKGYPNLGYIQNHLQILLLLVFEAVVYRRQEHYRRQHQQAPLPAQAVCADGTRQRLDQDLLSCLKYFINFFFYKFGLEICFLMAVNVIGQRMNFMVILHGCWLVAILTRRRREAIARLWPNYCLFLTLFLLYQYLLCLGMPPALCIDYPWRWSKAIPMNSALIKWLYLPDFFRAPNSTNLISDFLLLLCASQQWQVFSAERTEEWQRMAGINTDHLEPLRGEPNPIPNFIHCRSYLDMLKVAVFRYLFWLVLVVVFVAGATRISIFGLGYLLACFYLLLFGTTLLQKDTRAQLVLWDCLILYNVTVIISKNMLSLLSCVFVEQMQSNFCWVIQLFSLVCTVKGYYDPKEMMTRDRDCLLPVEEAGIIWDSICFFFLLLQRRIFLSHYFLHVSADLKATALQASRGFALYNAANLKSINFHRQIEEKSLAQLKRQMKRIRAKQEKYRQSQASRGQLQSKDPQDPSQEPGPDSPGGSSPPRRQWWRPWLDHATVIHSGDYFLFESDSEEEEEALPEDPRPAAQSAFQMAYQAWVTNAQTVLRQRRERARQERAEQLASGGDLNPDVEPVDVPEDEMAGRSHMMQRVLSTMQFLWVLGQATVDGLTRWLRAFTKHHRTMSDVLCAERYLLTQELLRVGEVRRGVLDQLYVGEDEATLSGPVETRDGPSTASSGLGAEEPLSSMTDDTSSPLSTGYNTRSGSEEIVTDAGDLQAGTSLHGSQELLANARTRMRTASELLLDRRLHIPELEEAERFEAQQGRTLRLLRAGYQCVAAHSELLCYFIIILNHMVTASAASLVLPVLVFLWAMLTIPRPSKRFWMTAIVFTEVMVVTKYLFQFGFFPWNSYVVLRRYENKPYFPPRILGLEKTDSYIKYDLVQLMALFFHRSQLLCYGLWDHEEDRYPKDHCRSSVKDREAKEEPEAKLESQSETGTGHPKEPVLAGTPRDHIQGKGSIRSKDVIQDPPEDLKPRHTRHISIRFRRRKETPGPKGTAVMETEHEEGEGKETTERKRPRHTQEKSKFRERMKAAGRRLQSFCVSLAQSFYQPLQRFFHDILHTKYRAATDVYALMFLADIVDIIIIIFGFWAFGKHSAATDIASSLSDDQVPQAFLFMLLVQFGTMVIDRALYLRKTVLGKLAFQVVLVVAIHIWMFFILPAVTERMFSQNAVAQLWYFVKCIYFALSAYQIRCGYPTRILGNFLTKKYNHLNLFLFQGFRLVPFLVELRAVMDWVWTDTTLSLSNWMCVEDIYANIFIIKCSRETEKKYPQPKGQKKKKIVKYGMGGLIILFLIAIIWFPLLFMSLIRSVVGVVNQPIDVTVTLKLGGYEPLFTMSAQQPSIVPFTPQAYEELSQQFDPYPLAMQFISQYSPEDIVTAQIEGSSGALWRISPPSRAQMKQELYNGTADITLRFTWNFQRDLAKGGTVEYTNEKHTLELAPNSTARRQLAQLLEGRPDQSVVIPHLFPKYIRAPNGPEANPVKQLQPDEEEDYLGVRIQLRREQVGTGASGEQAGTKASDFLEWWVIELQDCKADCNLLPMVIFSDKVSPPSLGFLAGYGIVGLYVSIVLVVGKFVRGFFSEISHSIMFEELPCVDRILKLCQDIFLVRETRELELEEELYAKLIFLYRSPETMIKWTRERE

Consider `Fc1ccc(Cl)c(CSc2nnc(-c3cnccn3)s2)c1Cl` [YW-3-170], for which the ATP production entry in the assay on MLO-Y4 cells was “increased ATP production in MLO-Y4 cells in a dose-dependent manner”. Also, in the assay on calvaria cells [1] (listed as 170), the “increases in mitochondria staining in Piezo1 knockout cells” value (“increases in mitochondria staining” for short) is “requires Piezo1” and the mitochondria staining result was “increase”. Besides, in the assay on calvaria cells [1] (listed as compound I), the “increases in mitochondria staining” value is “blunted” and the mitochondria staining result is given as “increased”. Also, in the assay on calvaria cells [1] (calvaria cells), the “stimulation of mitochondria staining compared with Yoda1” value is reported as “more potent stimulation of mitochondria staining than Yoda1”. In addition, on Piezo1 (MLO-Y4 cells), the “Ptgs2 expression compared with positive control Yoda1” value was “higher Ptgs2 expression than the positive control”, the “Ptgs2 expression compared with vehicle” value is on record as “higher Ptgs2 expression”, the “Tnfrsf11b expression compared with vehicle” value is “higher Tnfrsf11b expression” and the “Wnt1 expression compared with positive control Yoda1” value is “higher Wnt1 expression than the positive control”. For the same molecule, the “Wnt1 expression compared with vehicle” value on Piezo1 (MLO-Y4 cells) was “higher Wnt1 expression”. Moreover, in the assay on calvaria cells [2], the “changes in mitochondrial oxygen consumption rate in cells lacking Piezo1” value is listed as “significantly blunted” and the “increases in ATP production in Piezo1 knockout cells” value is “diminished”. Besides, in the assay on calvaria cells [2] (wildtype calvaria cells), the ATP production entry is “increase”, the “ATP production compared with Yoda1” value is recorded as “more ATP production than Yoda1” and the “mitochondrial oxygen consumption rate at basal level as well as stimulated level” value was “increased”. Moreover, in the assay on calvaria cells [2] (wildtype calvaria cells, listed as 170), the “mitochondrial oxygen consumption rate at basal level as well as stimulated level” value is given as “increase”.

Regarding `Clc1cccc(Cl)c1CSc1nnc(-c2cnccn2)s1` [Yoda1], in the assay on MLO-Y4 cells, the ATP production result is given as “increased ATP production in MLO-Y4 cells in a dose-dependent manner”. Besides, in the assay on calvaria cells [1], the “increases in mitochondria staining” value is on record as “blunted; also recorded: requires Piezo1” and the mitochondria staining entry is reported as “increase”. Further, at Piezo1 (MLO-Y4 cells), the “Ptgs2 expression compared with vehicle” value was “stimulated expression; also recorded: higher Ptgs2 expression”, the “Tnfrsf11b expression compared with vehicle” value was “stimulated expression; also recorded: higher Tnfrsf11b expression” and the “Wnt1 expression compared with vehicle” value is recorded as “stimulated expression; also recorded: higher Wnt1 expression”. The “changes in gene expression (Ptgs2, Wnt1, Tnfrsf11b) after silencing of Piezo1” value on Piezo1 (Piezo1 knock-down MLO-Y4 cells) is recorded as “completely prevented”. Moreover, on Piezo1 (setting [3]), the “increase of Ptgs2 after silencing Yap1 and Taz” value is “significantly blunted”; the “increase of Tnfrsf11b after silencing Yap1 and Taz” value was “significantly blunted”; the “increase of Wnt1 after silencing Yap1 and Taz” value is listed as “significantly blunted”. In addition, in the assay with calvaria cells [2], the “changes in mitochondrial oxygen consumption rate in cells lacking Piezo1” value was “significantly blunted” and the “increases in ATP production in Piezo1 knockout cells” value was “diminished”. For the same molecule, in the assay with calvaria cells [2] (wildtype calvaria cells), the ATP production entry is listed as “stimulated; also recorded: increase” and the “mitochondrial oxygen consumption rate at basal level as well as stimulated level” value was “increase”.
